Assay results as given in PubChem BioAssay AID330 (DTP/NCI, 2004).
“And” between values parts separate entries of the source, which are not always exact repeats. Equal entries are not always repeated. Inconclusive results and toxic doses are left out. How the source made its calls: active means survival T/C of 150% or more; inactive means T/C below 125% in these data.

System: P388 leukemia ip, CD2F1 mice, survival T/C
Test: NCI In Vivo Anticancer Drug Screen. Data for tumor model P388 Leukemia (intraperitoneal) in CD2F1 (CDF1) mice
Conditions: endpoint: median survival time, higher = longer survival
Method in brief: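 Mice carrying the transplanted tumor received test compound or vehicle. Survival was recorded in each group, and the value is the treated-group measurement divided by that of the vehicle-treated control group.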

[1] = dose: 25.0 mg/kg/injection, schedule: Q01DX009 (ip), vehicle: saline
[2] = dose: 60.0 mg/kg/injection, schedule: Q01DX005 (ip), vehicle: saline with Tween-80
[3] = dose: 120.0 mg/kg/injection, schedule: Q01DX005 (ip), vehicle: saline with Tween-80
[4] = dose: 240.0 mg/kg/injection, schedule: Q01DX005 (ip), vehicle: saline with Tween-80
[5] = dose: 50.0 mg/kg/injection, schedule: Q01DX005 (ip), vehicle: Klucel (hydroxypropylcellulose) (HPC)
[6] = dose: 100.0 mg/kg/injection, schedule: Q01DX005 (ip), vehicle: Klucel (hydroxypropylcellulose) (HPC)
[7] = dose: 200.0 mg/kg/injection, schedule: Q01DX005 (ip), vehicle: Klucel (hydroxypropylcellulose) (HPC)
[8] = dose: 50.0 mg/kg/injection, schedule: Q01DX009 (ip), vehicle: saline with Tween-80
[9] = dose: 50.0 mg/kg/injection, schedule: Q01DX005 (ip), vehicle: saline with Tween-80
[10] = dose: 100.0 mg/kg/injection, schedule: Q01DX005 (ip), vehicle: saline with Tween-80
[11] = dose: 200.0 mg/kg/injection, schedule: Q01DX005 (ip), vehicle: saline with Tween-80
[12] = dose: 7.5 mg/kg/injection, schedule: Q01DX005 (ip), vehicle: saline
[13] = dose: 60.0 mg/kg/injection, schedule: Q01DX005 (ip), vehicle: Klucel (hydroxypropylcellulose) (HPC)
[14] = dose: 120.0 mg/kg/injection, schedule: Q01DX005 (ip), vehicle: Klucel (hydroxypropylcellulose) (HPC)
[15] = dose: 240.0 mg/kg/injection, schedule: Q01DX005 (ip), vehicle: Klucel (hydroxypropylcellulose) (HPC)

Measured: T/C

COc1cccc2c1C(=O)c1c(O)c3c(c(O)c1C2=O)CC(O)(C(=O)COC(C)=O)CC3OC1CC(NC(C)=O)C(O)C(C)O1 (stereo not drawn)
inactive: dose: 0.78 mg/kg/injection, schedule: Q01DX009 (ip), vehicle: other 122 % of control | dose: 3.13 mg/kg/injection, schedule: Q01DX009 (ip), vehicle: other 120 % of control

O=NN(C(=O)NCc1cccnc1)C1CCCCC1
inactive: dose: 25.0 mg/kg/injection, schedule: Q01DX001 (ip), vehicle: distilled water + Tween-80 115 % of control | dose: 50.0 mg/kg/injection, schedule: Q01DX001 (ip), vehicle: distilled water + Tween-80 110 % of control | dose: 100.0 mg/kg/injection, schedule: Q01DX001 (ip), vehicle: distilled water + Tween-80 106 % of control | dose: 200.0 mg/kg/injection, schedule: Q01DX001 (ip), vehicle: distilled water + Tween-80 102 % of control | dose: 400.0 mg/kg/injection, schedule: Q01DX001 (ip), vehicle: distilled water + Tween-80 102 % of control

C=CC(=NC(C)(C)C)Nc1ccccc1Cl
inactive: dose: 3.12 mg/kg/injection, schedule: Q01DX009 (ip), vehicle: Klucel (hydroxypropylcellulose) (HPC) 104 % of control | dose: 6.25 mg/kg/injection, schedule: Q01DX009 (ip), vehicle: Klucel (hydroxypropylcellulose) (HPC) 103 % of control | dose: 6.25 mg/kg/injection, schedule: Q01DX009 (ip), vehicle: saline 116 % of control | dose: 12.5 mg/kg/injection, schedule: Q01DX009 (ip), vehicle: Klucel (hydroxypropylcellulose) (HPC) 102 % of control | dose: 12.5 mg/kg/injection, schedule: Q01DX009 (ip), vehicle: saline 118 % of control and 93 % of control | [1] 111 % of control

O=[N+]([O-])/C=C/c1cc2ccc3ccccc3c2[nH]1
inactive: [2] 94 % of control | [3] 89 % of control | [4] 102 % of control

CS1(C)=NC(=O)C2=C(N=1)c1ccccc1S2(=O)=O
inactive: [2] 97 % of control | [3] 94 % of control | [4] 89 % of control

O=c1[nH]c(=O)c2[nH]c(Br)nc2[nH]1
inactive: [5] 102 % of control | [6] 100 % of control | [7] 100 % of control

COc1cccc(C(=O)c2ccncc2)c1OC
inactive: dose: 12.5 mg/kg/injection, schedule: Q01DX009 (ip), vehicle: water 100 % of control | dose: 25.0 mg/kg/injection, schedule: Q01DX009 (ip), vehicle: water 100 % of control | dose: 50.0 mg/kg/injection, schedule: Q01DX009 (ip), vehicle: water 103 % of control | dose: 100.0 mg/kg/injection, schedule: Q01DX009 (ip), vehicle: water 104 % of control | dose: 200.0 mg/kg/injection, schedule: Q01DX009 (ip), vehicle: water 100 % of control

CCOP(=S)(Nc1ccc(F)cc1F)OCC
inactive: dose: 100.0 mg/kg/injection, schedule: Q04DX002 (ip), vehicle: saline with Tween-80 113 % of control | dose: 200.0 mg/kg/injection, schedule: Q04DX002 (ip), vehicle: saline with Tween-80 95 % of control

Cc1ccc(NC(=O)Oc2ccccc2F)c([N+](=O)[O-])c1
inactive: [8] 115 % of control | dose: 100.0 mg/kg/injection, schedule: Q01DX009 (ip), vehicle: saline with Tween-80 115 % of control | dose: 200.0 mg/kg/injection, schedule: Q01DX009 (ip), vehicle: saline with Tween-80 115 % of control

COc1ccc(/C=N\NC(=O)CNC(=O)Nc2cccc(C(F)(F)F)c2)cc1OC
inactive: dose: 3.13 mg/kg/injection, schedule: Q01DX009 (ip), vehicle: saline with Tween-80 112 % of control | dose: 6.25 mg/kg/injection, schedule: Q01DX009 (ip), vehicle: saline with Tween-80 108 % of control | dose: 12.5 mg/kg/injection, schedule: Q01DX009 (ip), vehicle: saline with Tween-80 91 % of control

CCOC(=O)CSc1sc(C(=O)OCC)c(N)c1C#N
inactive: [8] 87 % of control

Brc1nsc(SSc2nc(Br)ns2)n1
inactive: [5] 103 % of control | [6] 103 % of control | [7] 102 % of control

Cc1cc(C)c(C#N)c(Sc2nc(C)c([N+](=O)[O-])c(C)c2C#N)n1
inactive: [9] 96 % of control | [10] 100 % of control | [11] 102 % of control

CC(=O)NCCc1ccc(OC(C)=O)c(OC(C)=O)c1
inactive: [9] 99 % of control | [10] 103 % of control | [11] 107 % of control

CN(C[CH2][Sn]([CH3])([CH3])[Cl])C[CH2][Sn]([CH3])([CH3])[Cl]
inactive: dose: 3.75 mg/kg/injection, schedule: Q01DX005 (ip), vehicle: saline 102 % of control | [12] 121 % of control

O=c1c2ccccc2ncn1-c1ccc(O)c(CN(CCCl)CCCl)c1
inactive: dose: 100.0 mg/kg/injection, schedule: Q01DX001 (ip), vehicle: saline with Tween-80 101 % of control | dose: 200.0 mg/kg/injection, schedule: Q01DX001 (ip), vehicle: saline with Tween-80 97 % of control | dose: 400.0 mg/kg/injection, schedule: Q01DX001 (ip), vehicle: saline with Tween-80 93 % of control

CCOC(=O)Nc1ccc(SCC2COC(Cn3ccnc3)(c3ccc(Cl)cc3Cl)O2)cc1 (stereo not drawn)
inactive: dose: 12.5 mg/kg/injection, schedule: Q01DX001 (ip), vehicle: saline 104 % of control | dose: 25.0 mg/kg/injection, schedule: Q01DX001 (ip), vehicle: saline 107 % of control | dose: 50.0 mg/kg/injection, schedule: Q01DX001 (ip), vehicle: saline 110 % of control

CCN(CC)CC(C)(C)C(=O)/C=C/c1ccc(/C=C/C(=O)C(C)(C)CN(CC)CC)cc1
inactive: [12] 115 % of control and 124 % of control

O=C(O)C(F)(F)F.O=C(O)C(F)(F)F.O=C(O)C(F)(F)F.O=C(O)C(F)(F)F.[Rh].[Rh]
inactive: [1] 86 % of control | dose: 50.0 mg/kg/injection, schedule: Q01DX009 (ip), vehicle: saline 110 % of control | dose: 50.0 mg/kg/injection, schedule: Q01DX009 (ip), vehicle: suspension in saline 104 % of control | dose: 100.0 mg/kg/injection, schedule: Q01DX009 (ip), vehicle: saline 122 % of control | dose: 100.0 mg/kg/injection, schedule: Q01DX009 (ip), vehicle: suspension in saline 123 % of control

CCN(CCO)CC(O)Cn1cnc2c(N)ncnc21 (stereo not drawn)
inactive: [13] 95 % of control | [14] 94 % of control | [15] 97 % of control

O=C1NC(=O)C(CCCCCl)N1 (stereo not drawn)
inactive: [5] 100 % of control | [6] 102 % of control | [7] 98 % of control

COc1ccc2nc(-n3[nH]c(C)c(-c4cc(C)[nH]n4)c3=O)cc(C)c2c1
inactive: [9] 91 % of control | [10] 91 % of control | [11] 90 % of control

COc1ccc(C2=NC(=O)OC2(C)C)cc1
inactive: [13] 110 % of control | [14] 102 % of control | [15] 108 % of control

COc1cc(-c2nn(CN3CCOCC3)c(=S)o2)cc(OC)c1OC
inactive: [5] 96 % of control | [6] 97 % of control | [7] 99 % of control

CCC(=O)N(C)[C@@H]1Oc2ccc(O)cc2[C@]1(C)c1cc(O)ccc1O
inactive: [13] 98 % of control | [14] 97 % of control | [15] 99 % of control

CC(C)(C)NC(=S)N/N=C/c1ccccc1O
inactive: [9] 108 % of control | [10] 109 % of control | [11] 107 % of control

CCc1c(NCCCl)c(C(=O)NCCCl)c2nc3ccccc3n2c1NCCCl
inactive: dose: 3.75 mg/kg/injection, schedule: Q01DX005 (ip), vehicle: saline with Tween-80 100 % of control | dose: 7.5 mg/kg/injection, schedule: Q01DX005 (ip), vehicle: saline with Tween-80 106 % of control | dose: 15.0 mg/kg/injection, schedule: Q01DX005 (ip), vehicle: saline with Tween-80 108 % of control
